Measurements: patent US11561227B2, “Anti-mitochondrial inhibitors for oncogenic Ras and Myc” (LUNELLA BIOTECH, INC., priority 2017, dated 2023)

Tested on: MCF7 cells
Assay: Mammosphere formation in MCF7 cells (rotenone-induced oxidative stress)
Format: cell-based, human
Procedure: Investigation of the mechanism of tumorigenesis may be conducted by transduction of MCF7 cells with c-Myc, H-Ras, or both, and then subjecting the cell lines to phenotypic characterization, such as mammosphere formation. For the mammosphere formation assay inventors employed, a single suspension of MCF7 cells was prepared using enzymatic (lx Trypsin-EDTA, Sigma Aldrich) and manual disaggregation with a 25-gauge needle. Cells were plated at a density of 500 cells/cm^2 in a mammosphere medium (DMEM-F12/B27/20-ng/mlEGF/PenStrep) in non-adherent conditions, in culture dishes coated with 2-hydroxyethylmethacrylate (poly-HEMA, Sigma). Cells were grown for 5 days and maintained in a humidified incubator at 37° C. at an atmospheric pressure in 5% (v/v) carbon dioxide/air. After 5 days in culture, spheres >50 μm were counted using an eye-piece graticule, and the percentage of cells plated which formed spheres was calculated and is referred to as percent mammosphere formation, normalized to vehicle-alone treated controls. Mammosphere assays were performed in triplicate and repeated three times independently.
The inventors hypothesized that c-Myc induces “stemness” of CSCs in part by driving and managing the onset of mitochondrial oxidative stress. To test this hypothesis, inventors used a pharmacological approach to stimulate oxidative stress. Rotenone is a naturally occurring isoflavone that behaves as an inhibitor of complex I and strongly induces mitochondrial oxidative stress. During rotenone treatment, mitochondrial complexes I and III are the major sites of electron leakage, resulting in increased superoxide production. The inventors treated MCF7 cells with increasing concentrations of Rotenone.
To further validate that the effects of low-dose Rotenone were due to oxidative stress, the inventors tested the effects of a mitochondrial-specific antioxidant Mito-tempo. Mito-tempo functions as a reactive oxygen species (ROS) scavenger by targeting superoxide anions generated in mitochondria.

Structure (SMILES) | effect on rotenone-stimulated mammosphere formation (MCF7 mammospheres pretreated with rotenone, FIG. 6) | effect on mammosphere formation (higher dose Rotenone, MCF7 cells, FIG. 5) | stimulation of mammosphere formation (low-dose Rotenone, MCF7 cells, FIG. 5) [fold]
CC1(C)CC(NC(=O)C[P+](c2ccccc2)(c2ccccc2)c2ccccc2)CC(C)(C)N1[O] [Mito-tempo] | inhibited the stimulatory effects of rotenone | – | –
C=C(C)[C@H]1Cc2c(ccc3c2O[C@@H]2COc4cc(OC)c(OC)cc4[C@@H]2C3=O)O1 [Rotenone] | – | inhibited mammosphere formation | 1.6 to 1.8
